Measurements published in paper PMC5442262, “Catechol glucosides act as donor/acceptor substrates of glucansucrase enzymes of Lactobacillus reuteri” (Applied Microbiology and Biotechnology, 2017).

Key:
Type in all cases: biochemical
GtfML1-ΔN = biological target: T1, GtfML1-ΔN (Limosilactobacillus reuteri, UniProt Q5SBN0); test: MALDI-TOF-MS of products; conditions: 100 mM catG1, 24 h; 25 mM sodium acetate pH 4.7, 1 mM CaCl2, 37 °C; donor and acceptor
T1 construct: recombinant, N-terminally truncated (ΔN); also printed GtfMLI-ΔN
T1 sequence (Q5SBN0 entry or part of it, stated change not applied): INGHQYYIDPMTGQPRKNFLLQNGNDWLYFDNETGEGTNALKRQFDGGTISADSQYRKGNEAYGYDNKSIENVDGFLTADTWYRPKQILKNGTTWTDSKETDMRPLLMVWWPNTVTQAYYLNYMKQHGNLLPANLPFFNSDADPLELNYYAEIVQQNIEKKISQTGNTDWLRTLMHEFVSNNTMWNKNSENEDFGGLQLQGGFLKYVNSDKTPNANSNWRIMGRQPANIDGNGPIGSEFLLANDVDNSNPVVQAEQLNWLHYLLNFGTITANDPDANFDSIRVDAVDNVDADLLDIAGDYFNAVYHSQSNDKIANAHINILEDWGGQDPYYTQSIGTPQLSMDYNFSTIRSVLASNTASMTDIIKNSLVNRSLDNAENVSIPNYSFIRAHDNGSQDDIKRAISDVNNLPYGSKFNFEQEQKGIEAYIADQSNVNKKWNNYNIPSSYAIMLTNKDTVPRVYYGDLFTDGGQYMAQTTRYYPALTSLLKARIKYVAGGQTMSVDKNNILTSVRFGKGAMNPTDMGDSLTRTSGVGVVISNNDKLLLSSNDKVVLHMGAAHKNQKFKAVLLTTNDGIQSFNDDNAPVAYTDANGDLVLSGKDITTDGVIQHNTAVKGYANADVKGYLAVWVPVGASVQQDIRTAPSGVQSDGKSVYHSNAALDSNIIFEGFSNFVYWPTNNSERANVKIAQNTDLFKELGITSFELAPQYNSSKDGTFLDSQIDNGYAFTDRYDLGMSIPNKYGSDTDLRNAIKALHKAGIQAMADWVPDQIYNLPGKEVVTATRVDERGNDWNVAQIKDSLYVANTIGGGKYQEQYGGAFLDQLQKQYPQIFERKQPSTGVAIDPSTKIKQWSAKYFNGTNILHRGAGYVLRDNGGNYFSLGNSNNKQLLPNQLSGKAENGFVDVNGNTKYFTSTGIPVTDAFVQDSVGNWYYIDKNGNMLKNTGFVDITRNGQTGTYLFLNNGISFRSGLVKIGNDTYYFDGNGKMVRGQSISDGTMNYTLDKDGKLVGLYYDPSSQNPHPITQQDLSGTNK

Gtf180-ΔN [1] = biological target: T2, Gtf180-ΔN (Limosilactobacillus reuteri, UniProt Q5SBN3); test: MALDI-TOF-MS of products; conditions: 100 mM catG1, 24 h; 25 mM sodium acetate pH 4.7, 1 mM CaCl2, 37 °C; donor and acceptor
T2 construct: recombinant, N-terminally truncated (ΔN)
T2 sequence (Q5SBN3 entry or part of it, stated change not applied): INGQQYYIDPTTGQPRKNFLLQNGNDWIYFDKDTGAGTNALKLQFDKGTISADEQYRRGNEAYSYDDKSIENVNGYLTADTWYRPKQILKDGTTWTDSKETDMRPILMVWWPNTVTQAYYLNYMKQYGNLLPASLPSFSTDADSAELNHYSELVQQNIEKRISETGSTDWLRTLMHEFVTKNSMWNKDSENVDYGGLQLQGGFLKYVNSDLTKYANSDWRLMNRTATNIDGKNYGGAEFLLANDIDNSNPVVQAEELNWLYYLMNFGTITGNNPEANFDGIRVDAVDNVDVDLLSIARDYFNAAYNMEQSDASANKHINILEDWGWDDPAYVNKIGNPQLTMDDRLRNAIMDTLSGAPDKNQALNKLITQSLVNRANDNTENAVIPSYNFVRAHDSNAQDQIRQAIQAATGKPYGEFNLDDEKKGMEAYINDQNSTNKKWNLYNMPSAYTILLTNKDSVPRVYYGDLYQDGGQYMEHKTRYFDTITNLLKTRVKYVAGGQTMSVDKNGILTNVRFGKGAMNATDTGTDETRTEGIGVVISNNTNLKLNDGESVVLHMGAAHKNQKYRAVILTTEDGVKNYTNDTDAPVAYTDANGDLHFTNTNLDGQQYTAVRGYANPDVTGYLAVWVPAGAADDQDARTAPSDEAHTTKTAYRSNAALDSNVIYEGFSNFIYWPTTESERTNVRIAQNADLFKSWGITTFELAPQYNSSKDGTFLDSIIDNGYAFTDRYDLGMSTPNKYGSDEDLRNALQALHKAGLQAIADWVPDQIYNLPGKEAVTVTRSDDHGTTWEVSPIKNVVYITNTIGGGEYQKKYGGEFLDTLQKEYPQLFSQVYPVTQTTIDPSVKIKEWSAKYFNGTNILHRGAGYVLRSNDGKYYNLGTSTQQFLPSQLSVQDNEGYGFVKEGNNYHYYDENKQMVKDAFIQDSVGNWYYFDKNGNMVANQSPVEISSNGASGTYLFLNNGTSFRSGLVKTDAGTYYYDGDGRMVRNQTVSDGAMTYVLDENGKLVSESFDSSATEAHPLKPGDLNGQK

Gtf180-ΔN [2] = biological target: T2, Gtf180-ΔN; test: NP-HPLC of substrate decrease; 1H NMR of products; conditions: 100 mM cat^6G2; 25 mM sodium acetate pH 4.7, 1 mM CaCl2, 37 °C; donor and acceptor

OC[C@H]1O[C@H](Oc2ccccc2O)[C@H](O)[C@@H](O)[C@@H]1O [catG1]
MALDI-TOF-MS of products (GtfML1-ΔN): Gtf180-ΔN and GtfMLI-ΔN glucansucrase enzymes also were able to use catG1 as glucosyl donor | MALDI-TOF-MS of products (Gtf180-ΔN [1]): Gtf180-ΔN and GtfMLI-ΔN glucansucrase enzymes also were able to use catG1 as glucosyl donor

OC[C@H]1O[C@H](OC[C@H]2O[C@H](Oc3ccccc3O)[C@H](O)[C@@H](O)[C@@H]2O)[C@H](O)[C@@H](O)[C@@H]1O [cat^6G2]
NP-HPLC of substrate decrease; 1H NMR of products (Gtf180-ΔN [2]): Gtf180-ΔN used both cat^3G2 and cat^6G2 as donor/acceptor substrates
